We go through 18 compounds from patent publication US5594001A, “Polycyclic systems, and derivatives thereof, as neurotransmitter release enhancers useful in the treatment of cognitive disorders” (The DuPont Merck Pharmaceutical Company, priority 1994, dated 1997).

Counter-ions that a name gives are not always drawn.

In the first experiment the test system is stimulus-induced acetylcholine release, slices from the parietal cortex. Briefly: Neurotransmitter (ACh) release assay, rat cortex slices, K+ stimulated. The note with it: Table II, 10 μM, % increase of drug-induced ACh release. The class given is cell-based, rat (male Wistar). Here is the method: The neurotransmitter release activities of the compounds of this invention were determined using standard biochemical assay procedures for example, the neurotransmitter release assay as described below.
Neurotransmitter release assay.
The neurotransmitter (Ach) release activities of the compounds of this invention were determined by the assay as described by Nickolson, et al., Drug Development Research, (1990) 19: 285-300, a modification of the procedure described by Mulder, et al., Brain Res., (1974) 70: 372.
Male Wistar rats (Charies River) weighing 175-200 grams were used. Rats were decapitated and brains were dissected immediately. Slices (0.3 mm thick) from the parietal cortex were prepared (approximately 100 mg wet weight) and were incubated in 10 ml KrebsRinger medium (KR) containing NaCl (116 mM), KCl (3 mM), CaCl2 (1.3 mM), MgCl2 (1.2 mM), KH2 PO4 (1.2 mM), Na2 SO4 (1.2 mM), NaHCO3 (25.0 mM), and glucose (11.0 mM), to which was added 10 uCi ^3 H-choline (specific activity approximately 35 Ci/mM; NEN) and […] unlabeled choline to give a final concentration of one micromole. The brain preparations were incubated for 30 min. at 37° C. under a steady flow of 95% O2 /5% CO2. Under these conditions, part of the radioactive choline taken up by the preparation was converted into radioactive acetylcholine (ACh) by the cholinergic nerve endings stored in synaptic vesicles, and released upon depolarization by high potassium ion (K+) containing media.
After labelling of the ACh stores, the slices were washed three times with non-radioactive KR medium and transferred to a superfusion apparatus to measure the drug effects on ACh release. The superfusion apparatus consisted of 10 thermostated glass columns of 5 mm diameter that were provided with GF/F glass fiber filters to support the slices (approximately 10 mg tissue/column). Superfusion was carried out in KR-medium (0.3 ml/min.) containing […] hemicholine-3 (HC-3). The HC-3 prevents the reuptake of choline formed during the superfusion from phospholipids and released ACh, which would be converted into unlabeled ACh and released in preference to the preformed labeled ACh. The medium was delivered by a 25-channel peristaltic pump (Ismatec by Brinkman) and warmed to 37° C. in a thermostated stainless steel coil before entering the superfusion column. Each column was provided with a 4-way slider valve (Beckmann instruments) which allowed rapid change of low to high K+/KR-medium, and with two 10-channel 3-way valves that were used to change from drug-free to drug-containing low and high K+/KR-medium. After 15 min. of washout of non-specifically bound radioactivity, collection of 4 min. fractions was initiated. After three 4 min. collections, the original medium was changed to a KR-medium in which the KCl concentration had been increased to 25 mM (high K+ medium) (S1). Depolarization-induced stimulation of release by high K+/KR-medium lasted for 4 min. Drug free low and high K+/KR-media were then substituted by drug- and vehicle-containing low- and high-K+/KR-medium, and superfusion was continued for three 4 min. collections with low K+/KR-medium, one 4 min. collection with high K+/KR-medium (s2), and two 4 min. collections with low K+/KR-medium.
Drug was added to the media by 100-fold dilutions of appropriate concentrations of the drug (in 0.9% saline) with either low- or high-K+/KR-medium. For comparative purposes, linopirdine was also run.
All superfusion fractions were collected in liquid scintillation counting vials. After superfusion, the slices were removed from the superfusion columns and extracted with 1.0 ml of 0.1N HCl. Liquiscint (NEN) counting fluid (12 ml) was added to superfusion fractions and extracts, and the samples were counted in a Packard Tricarb Liquid Scintillation Counter. No corrections were made for quenching. […]
On to `c1ccc(CC2(Cc3ccncc3)c3ccccc3-c3sccc32)cc1` (stereo not shown) [Example 8], for which the activation at 10 µM is 130%.

Compound `Fc1cc(CC2(Cc3ccncc3)c3cccnc3-c3sccc32)ccn1` (stereo not shown) [Example 11, 4-[(2-Fluoro-4-pyridinyl)methyl]-4-(4-pyridinylmethyl)-4H-thieno[3',2':4,5]cyclopenta[1,2-B]pyridine] showed an activation at 10 µM of 757%.

Regarding `CC(=O)OCCCCC1(Cc2ccncc2)c2ccccc2-c2sccc21` (stereo not shown) [Example 5, 4-(4-Pyridinylmethyl)-4H-indeno[1,2-B]thiophene-4-butanol Acetate (Ester) Hydrochloride], the activation at 10 µM is 224%.

Compound `N#Cc1cccc(CC2(Cc3ccncc3)c3ccccc3-c3sccc32)c1` (stereo not shown) [Example 2, 3-[4-(4-Pyridinylmethyl)-4H-indeno[1,2-B]thiophen-4-ylmethyl-benzonitrile Hydrobromide Hydrate] yielded an activation at 10 µM of 220%.

On to `c1ccc(-n2cc3c(n2)-n2cccc2C3(Cc2ccncc2)Cc2ccncc2)cc1` [Example 15, 2,4-Dihydro-2-phenyl-4,4-bis(4-pyridinylmethyl)pyrazolo[4,3-B]pyrrolizine], for which the activation at 10 µM is 348%.

For the compound `c1ccc2c(c1)-c1sccc1C2Cc1ccncc1` (stereo not shown) [Example 1, 4-(4-Pyridinylmethyl)-4H-indeno[1,2-B]thiophene], the activation at 10 µM turned out to be 92%.

The compound `CCOC(=O)CC1(Cc2ccncc2)c2ccccc2-c2sccc21` (stereo not shown) [Example 4, 4-(4-Pyridinylmethyl)-4H-indeno[1,2-B]thiophene-4-acetic acid, Ethyl Ester Hydrochloride] yielded an activation at 10 µM of 146%.

With `N#CCCCCC1(Cc2ccncc2)c2ccccc2-c2sccc21` (stereo not shown) [Example 3, 4-(4-Pyridinylmethyl)-4H-indeno[1,2-B]thiophene-4-pentanenitrile Hydrobromide Hydrate], the activation at 10 µM amounted to 145%.

For the compound `NC(=O)CCCCC1(Cc2ccncc2)c2ccccc2-c2sccc21` (stereo not shown) [Example 6, 4-(4-Pyridinylmethyl)-4H-indeno[1,2-B]thiophene-4-pentanamide Hydrochloride Hydrate], the activation at 10 µM amounted to 163%.

As for `c1cnc2c(c1)C(Cc1ccncc1)c1ccsc1-2` (stereo not shown) [Example 10, 4-(4-Pyridinylmethyl)-4H-thieno[2',3':3,4]cyclopenta[1,2-B]pyridine], the activation at 10 µM worked out at 118%.

Staying with this experiment, now noted: Table III.
Regarding `Fc1cc(CC2(Cc3ccncc3)c3ccccc3Oc3ccccc32)ccn1` [Example 65, 9-((2-Fluoro-4-pyridinyl)methyl)-9-(4-pyridinylmethyl)-9H-xanthene], the EC50 was 0.82 µM.

The compound `C#Cc1ccc2c(c1)C(Cc1ccnc(F)c1)(Cc1ccnc(F)c1)c1cccnc1-2` [Example 79, 5,5-Bis((2-fluoro-4-pyridinyl)methyl)-7-(ethynyl)-5H-indeno-[1,2-b]pyridine] displayed an EC50 of 2.65 µM.

As for `O=C1c2ccccc2C(Cc2ccncc2)(Cc2ccnc(F)c2)c2ccccc21` [Example 66], the EC50 was 0.31 µM.

`Fc1cc(CC2(Cc3ccncc3)c3ccccc3Oc3ncccc32)ccn1` (stereo not shown) [Example 70, 9-((2-Fluoro-4-pyridinyl)methyl)-9-(4-pyridinylmethyl)-4-azaxanthene] returned an EC50 of 0.35 µM.

As for `COc1ccc2c(c1)C(=O)c1ccc(OC)cc1C2(Cc1ccnc(F)c1)Cc1ccnc(F)c1` [Example 74, 10,10-Bis((2-fluoro-4-pyridinyl)methyl)-2,6-dimethoxy-9(10H)-anthracenone], the midpoint of the response, the EC50, lay at 0.88 µM.

The compound `Fc1cc(CC2(Cc3ccnc(F)c3)c3ccccc3-c3nccnc32)ccn1` [Example 80, 9,9-Bis((2-fluoro-4-pyridinyl)methyl)-9H-indeno-[1,2-b]pyrazine] yielded an EC50 of 2.33 µM.

Compound `Nc1cccc2c1C(Cc1ccnc(F)c1)(Cc1ccnc(F)c1)c1ccccc1-2` [Example 96, 9,9-Bis((2-fluoro-4-pyridinyl)methyl)-9H-fluoren-1-amine] registered an EC50 of 0.57 µM.

`COc1ccc2c(c1)C(Cc1ccnc(F)c1)(Cc1ccnc(F)c1)c1ccccc1C2=O` [Example 77, 10,10-Bis((2-fluoro-4-pyridinyl)methyl)-3-methoxy-9(10H)-anthracenone] had an EC50 of 0.66 µM.

The next experiment relates to ACh level in the rat hippocampus. Briefly: Microdialysis, ACh levels in the rat hippocampus in vivo. The conditions noted are these: Table IV; 5 mg/kg, vehicle methocel. Set-up: species or system rat (male Wistar). How it is done:
Male Wistar Rats are anaesthetized and guide cannulas stereotaxically implanted into the brain at the level of the dorsal hippocampus. Following a minimum recovery period of 72 h, dialysis probes (0.5 mm diameter, 4.0 mm long, from BAS) are inserted into the hippocampus through the guide cannulas. The probes are perfused at a rate of 2 μl/min with artificial cerebrospinal fluid containing 100 μM physostigmine sulfate (a cholinesterase inhibitor). Rats are allowed to acclimate for 2 hours prior to sample collection. Dialysate samples are collected every 20 min (40 μl) and immediately injected onto a high performance liquid chromatograph equipped for electrochemical detection (HPLC-EC) of acetylcholine (ACh). Following collection of 3 baseline samples, drugs or vehicle control are administered in 0.01 ml/g body weight and dialysate samples are collected for an additional 3 h. The ACh peak heights of the 3 samples prior to drug administration are averaged together to determine baseline ACh levels. ACh peak heights post drug administration are measured and used to determine percent change over baseline ACh levels. At the end of experiments, probe placement is verified histologically.
ACh is separated by reverse phase chromatography (Hamilton PRP-1 column 150×4.5 mm) and converted to acetate, betaine and hydrogen peroxide on an immobilized enzyme reactor column (BAS). Hydrogen peroxide is then detected electrochemically. Mobile phase for the chromatography consists of 0.2M Na2 HPO4, 0.1 mM EDTA, 0.5 mM SOS, 0.9 mM TMA.Cl, with pH adjusted to 8.0 with phosphoric acid and […] Kathon CG (ESA) added to each liter of mobile phase to retard bacterial growth.
FIGS. 1 and 2 show the effects of fluorine substitution to the pendant groups of the anthrone and azafluorene core series on the ability of compounds to increase the level of ACh in the rat hippocampus in vivo. All compounds were tested at 5 mg/kg except Ex. No 64 which was administered at 1 mg/kg. […] This was observed even though the compound was administered by a route (i.p.) which should lead to greater bioavailability than the oral route. Example 68 of the present invention, the bis-fluorinated analog of Example 611 or U.S. Pat. No. 5,173,489, on the other hand, led to a 2-fold increase in ACh levels which was maintained for over 1 hour (FIG. 1). The anthrone compound Ex. No. 440 of U.S. Pat. No. 5,173,489, at 5 mg/kg, led to a peak ACh level of 72% over baseline (FIG. 2). Ex. No. 64 of the present invention, which is the bis-fluoro analog of Ex. No. 440 of U.S. Pat. No. 5,173,489, at 1 mg/kg, led to a delayed increase in ACh levels reaching a peak of over 100% above baseline (FIG. 2). In contrast to the observed effects of Example 440 of U.S. Pat. No. 5,173,489, the increase in ACh level after administration of Example 64 of the present invention was maintained for the entire duration of testing (3 hours).
`Fc1cc(CC2(Cc3ccncc3)c3ccccc3Oc3ccccc32)ccn1` [Example 65, 9-((2-Fluoro-4-pyridinyl)methyl)-9-(4-pyridinylmethyl)-9H-xanthene]: the “AUC, Area % under the curve” value was determined as 147 ± 69%; the “Peak, maximal % increase of ACh release over baseline” value was 40 ± 11%; the “time of Peak after administration” value is 20 min.

Staying with this experiment, now noted: Table IV; 5 mg/kg, vehicle methocel; NSP = no significant points.
`Fc1cc(CC2(Cc3ccncc3)c3ccccc3Oc3ccccc32)ccn1` [Example 65, 9-((2-Fluoro-4-pyridinyl)methyl)-9-(4-pyridinylmethyl)-9H-xanthene]: the “Duration, minutes of release above statistical significance” value was determined as 60 min.

In general, EC50 refers to the concentration needed to bring the measured effect to its halfway point. Read a high EC50 as weaker potency.
